Molecules are shown by their SMILES.

Assay [1] can be described thus: Vasodilator activity assessed as ability to relax phenylephrine-induced contraction of Wistar rat aortic strips.
Assay [2] in a line: Vasodilator activity assessed as ability to relax phenylephrine-induced contraction of Wistar rat aortic strips in presence of 1 uM ODQ.

What is called EC50 is the concentration at which the effect is half-maximal. Consider `Cc1c(C)c2c(c(C)c1O)CCC(C)(COc1no[n+]([O-])c1S(=O)(=O)c1ccccc1)O2` (centres undefined) [2-(4-Benzenesulfonyl-5-oxy-furazan-3-yloxymethyl)-2,5,7,8-tetramethyl-chroman-6-ol], for which the values for the EC50 in assay [1] and in assay [2] were 0.044 µM and 0.67 µM, respectively.
As for `NC(=O)c1c(CO)no[n+]1[O-]` [4-hydroxymethyl-2-oxy-furazan-3-carboxylic acid amide], the EC50 in assay [1] came to 6.3 µM.
`CN(CCCc1cc(C(C)(C)C)c(O)c(C(C)(C)C)c1)Cc1no[n+]([O-])c1C(N)=O` [4-((N-(3-(3,5-di-tert-butyl-4-hydroxyphenyl)propyl)-N-methylamino)methyl)furoxan-3-carboxamide]: the EC50 was found to be 0.41 µM in assay [1] and 7.4 µM in assay [2].
For `Cc1c(C)c2c(c(C)c1O)CCC(C)(COCCCO[N+](=O)[O-])O2` (centres undefined) [2,5,7,8-Tetramethyl-2-(3-nitrooxy-propoxymethyl)-chroman-6-ol], the EC50 amounted to 1.2 µM in assay [1] and 10 µM in assay [2].
Turning to `CN(C)Cc1no[n+]([O-])c1C(N)=O` [4-dimethylaminomethyl-2-oxy-furazan-3-carboxylic acid amide], the EC50 in assay [1] stood at 3.1 µM.
As to `O=S(=O)(c1ccccc1)c1c(OCCCc2ccc(O)cc2)no[n+]1[O-]` [4-(3-(3-benzenesulfonylfuroxan-4-yloxy)propyl)phenol], the EC50 was 0.012 µM in assay [1] and 0.36 µM in assay [2].
On to `COc1cc(CCCO[N+](=O)[O-])cc(OC)c1O` [3-(4-hydroxy-3,5-dimethoxyphenyl)propyl nitrate], for which the EC50 in assay [1] was 4.3 µM.
Same read-out and setting: with `O=[N+]([O-])OCCCc1ccc(O)cc1` [4-(3-Nitrooxy-propyl)-phenol] the figure was 1 µM.
For `COc1cc(CCCOc2no[n+]([O-])c2S(=O)(=O)c2ccccc2)cc(OC)c1O` [4-(3-(3-benzenesulfonylfuroxan-4-yloxy)propyl)-2,6-dimethoxyphenol], the figures for the EC50 in assay [1] and in assay [2] were 0.022 µM and 0.5 µM, respectively.
`CC(C)(C)c1cc(CCCO[N+](=O)[O-])cc(C(C)(C)C)c1O` [2,6-Di-tert-butyl-4-(3-nitrooxy-propyl)-phenol]: the EC50 in assay [1] was 40 µM.
As to `CC(C)(C)c1cc(CCCOc2no[n+]([O-])c2S(=O)(=O)c2ccccc2)cc(C(C)(C)C)c1O` [4-(3-(3-benzenesulfonylfuroxan-4-yloxy)propyl)-2,6-di-tertbutylphenol], the values for the EC50 in assay [1] and in assay [2] were 0.11 µM and 4.8 µM, respectively.
The matching figures for `Cc1c(C)c2c(c(C)c1O)CCC(C)(CN(C)Cc1no[n+]([O-])c1C(N)=O)O2` (centres undefined) [4-((N-((6-hydroxy-2,5,7,8-tetramethylchroman-2-yl)methyl)-N-methylamino)methyl)furoxan-3-carboxamide]: 1.5 µM and 19 µM.

The values are drawn from BindingDB's records for doi:10.1021/jm0510530 (Universit&#224, 2006).
